The NIST ThermoML archive (doi:10.1016/j.tca.2015.01.012)

Conditions: 101.33 kPa, Crystal; for molar entropy: Small (less than 1 g) adiabatic calorimetry; for mass density: X-ray diffraction

O=C(O)c1cccnc1 [3-carboxylpyridine]
Conditions | mass density [kg/m3] | molar entropy [J/K/mol]
1 K | – | 0.0005
2 K | – | 0.004
3 K | – | 0.0136
4 K | – | 0.0323
5 K | – | 0.063
6 K | – | 0.1089
7 K | – | 0.1788
8 K | – | 0.2634
9 K | – | 0.3747
10 K | – | 0.5086
15 K | – | 1.592
20 K | – | 3.297
25 K | – | 5.543
30 K | – | 8.212
35 K | – | 11.2
40 K | – | 14.39
45 K | – | 17.7
50 K | – | 21.08
60 K | – | 27.91
70 K | – | 34.69
80 K | – | 41.32
90 K | – | 47.75
100 K | – | 53.98
110 K | – | 60.02
120 K | – | 65.91
130 K | – | 71.64
140 K | – | 77.24
150 K | 1481 | 82.72
160 K | – | 88.1
170 K | – | 93.38
175 K | 1477 | –
180 K | – | 98.6
190 K | – | 103.7
200 K | 1471 | 108.9
210 K | – | 113.9
220 K | – | 119
225 K | 1465 | –
230 K | – | 124
240 K | – | 129
250 K | 1460 | 134.1
260 K | – | 139.1
270 K | – | 144.2
273.15 K | – | 145.7
275 K | 1454 | –
280 K | – | 149.2
290 K | – | 154.3
298.15 K | – | 158.4
300 K | 1444 | 159.3
310 K | – | 164.4
320 K | – | 169.5
325 K | 1436 | –
330 K | – | 174.6
340 K | – | 179.7
346 K | – | 182.8
350 K | 1430 | –
375 K | 1422 | –
400 K | 1413 | –
425 K | 1406 | –
